Measured values taken from PMC12348470, “Amino Acid Substitutions in Bacteriocin Lactolisterin BU Reveal Functional Domains Involved in Biological Activity Against Staphylococcus aureus” (Molecules, 2025).
“And” between values parts separate entries of the source, which are not always exact repeats. Identical values can stand only once. Like-named read-outs stand apart in the source and are kept apart here. Ends that are not written are not given here.

Tests used:
agrA = conditions: half MIC, 16–18 h, 37 °C, normalised to gmk, duplicate
Text: (§1) Six virulence-related genes were selected (agrA, clfA, icaR, lukSPV, spa, and hla) to capture a representative profile of quorum sensing regulation (agrA), adhesion (clfA), biofilm repression (icaR), immune evasion (spa), and cytolytic toxin production (lukSPV and hla), providing an exploratory view of how peptide treatment influences the distinct profile of S. aureus pathogenicity.
(§2) The effect of sub-inhibitory peptide concentrations on S. aureus ATCC 25923 virulence gene expression was evaluated using quantitative real-time PCR (RT-qPCR). […] Untreated bacterial cultures in corresponding media served as controls.
(§3) Total RNA was extracted using the RNeasy Mini Kit (QIAGEN GmbH, Hilden, Germany). Samples were treated with Dnase I (Thermo Fisher Scientific) to remove genomic DNA contamination. RNA concentration and purity were determined using a NanoDrop spectrophotometer (A260/A280 ratio 1.9–2.1).
(§4) Complementary DNA (cDNA) synthesis was performed using […] of total RNA and the RevertAid RT Reverse Transcription Kit (Thermo Fisher Scientific) with random hexamer primers, according to the manufacturer’s instructions. Quantitative PCR was performed using FastGen 2x IC Green qPCR Universal (Nippon Genetics) on a LineGene 9600 Plus Real Time thermocycler (Bioer Technology Co., Ltd., Hangzhou, China). Primer sequences (Table S3) for the virulence-related genes agrA, clfA, hla, icaR, lukS-PV, and spa were used. The housekeeping gene gmk (guanylate kinase) was used for normalization.
(§5) Primer efficiency (90–110%) and specificity were confirmed by melt curve analysis. Relative expression levels were calculated using the ΔΔCt method, as reported by Livak et Schmittgen, comparing treated samples to their corresponding untreated controls in each medium. A log2 fold change ≥1 or ≤−1 was considered biologically significant. All experiments were performed in duplicate.

clfA = conditions: half MIC, 16–18 h, 37 °C, normalised to gmk, duplicate
Text: as §1, §2, §3, §4, §5

spa = conditions: half MIC, 16–18 h, 37 °C, normalised to gmk, duplicate
Text: as §1, §2, §3, §4, §5

S. aureus ATCC 25923 = assay type: cell-based, Staphylococcus aureus

| Sequence | agrA expression, log2 fold-change vs untreated control (agrA; FBS) | agrA expression, log2 fold-change vs untreated control (agrA; LB medium) | clfA expression, log2 fold-change vs untreated control (clfA; FBS) | clfA expression, log2 fold-change vs untreated control (clfA; LB medium) | spa expression, log2 fold-change vs untreated control (spa; FBS) | spa expression, log2 fold-change vs untreated control (spa; LB medium) | MBC (S. aureus ATCC 25923) |
| --- | --- | --- | --- | --- | --- | --- | --- |
| MWARILGTVAKYGPKAVSWAWQHKWELINMGDLAFRYIQRIWG [Peptide G3A] | -0.47 log2 fold change | -0.93 log2 fold change | -1.55 log2 fold change | 0.76 log2 fold change | 1.43 log2 fold change | 2.16 log2 fold change | 25 µg/mL |
| MWGRILATVAKYGPKAVSWAWQHKWELINMGDLAFRYIQRIWG [Peptide G7A] | 0.61 log2 fold change | -0.32 log2 fold change | -0.69 log2 fold change | -0.59 log2 fold change | -0.27 log2 fold change | 0.37 log2 fold change | 25 µg/mL |
| MWGRILGTVAKYAPKAVSWAWQHKWELINMGDLAFRYIQRIWG [Peptide G13A] | 0.82 log2 fold change | -0.40 log2 fold change | 0.64 log2 fold change | -0.19 log2 fold change | 1.69 log2 fold change | -0.32 log2 fold change and −0.33 log2 fold change | 12.5 µg/mL |
